Measured values: patent publication US20140235613A1, “SUBSTITUTED DIARYL AZETIDINE DERIVATIVES AS SPHINGOSINE RECEPTOR MODULATORS” (Allergan, Inc., priority 2013, published 2014)

Biological target: T1, human S1P1 receptor (Homo sapiens, UniProt P21453)
T1 construct: expressed in transfected cells; membranes used
Experiment: GTP γ35S binding assay for S1P1 activity
Type: biochemical
Details: Activity potency: S1P1 receptor from GTP γ35S; membranes; test concentration range 0.08 to 5,000 nM
Experimental: Compounds were tested for S1P1 activity using the GTP γ^35S binding assay. These compounds may be assessed for their ability to activate or block activation of the human S1P1 receptor in cells stably expressing the S1P1 receptor.
[…] binding was measured in the medium containing (mM) HEPES 25, pH 7.4, MgCl2 10, NaCl 100, dithitothreitol 0.5, digitonin 0.003%, 0.2 nM GTP γ^35S, and 5 μg membrane protein in a volume of 150 μl. Test compounds were included in the concentration range from 0.08 to 5,000 nM unless indicated otherwise. Membranes were incubated with 100 μM 5′-adenylylimmidodiphosphate for 30 min, and subsequently with 10 μM GDP for 10 min on ice.
Drug solutions and membrane were mixed, and then reactions were initiated by adding GTP γ^35S and continued for 30 min at 25° C. Reaction mixtures were filtered over Whatman GF/B filters under vacuum, and washed three times with 3 mL of ice-cold buffer (HEPES 25, pH7.4, MgCl2 10 and NaCl 100). Filters were dried and mixed with scintillant, and counted for ^35S activity using a β-counter. Agonist-induced GTP γ^35S binding was obtained by subtracting that in the absence of agonist. Binding data were analyzed using a non-linear regression method. In case of antagonist assay, the reaction mixture contained 10 nM S1P in the presence of test antagonist at concentrations ranging from 0.08 to 5000 nM.

T1 sequence (P21453 whole entry): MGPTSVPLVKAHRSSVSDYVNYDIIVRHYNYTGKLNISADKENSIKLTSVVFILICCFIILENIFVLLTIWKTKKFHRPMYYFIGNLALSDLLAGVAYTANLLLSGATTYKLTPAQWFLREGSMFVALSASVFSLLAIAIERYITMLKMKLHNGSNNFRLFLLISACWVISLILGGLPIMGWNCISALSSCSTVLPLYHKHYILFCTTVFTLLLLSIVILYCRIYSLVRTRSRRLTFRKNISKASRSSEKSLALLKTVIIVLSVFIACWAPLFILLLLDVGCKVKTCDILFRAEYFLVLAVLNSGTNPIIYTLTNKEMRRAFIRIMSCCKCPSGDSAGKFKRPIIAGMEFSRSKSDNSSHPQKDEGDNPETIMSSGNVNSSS

Row | EC50 | SMILES
1 | 297 nM | O=C(O)C1CN(Cc2ccc(CC/N=c3\scc(-c4ccccc4)n3-c3ccccc3)cc2)C1 [Compound 1, 1-[4-(2-{[(2Z)-3,4-diphenyl-1,3-thiazol-2(3H)-ylidene]amino}ethyl)benzyl]azetidine-3-carboxylic acid]
2 | 5600 nM | O=C(O)C1CN(Cc2ccc(CCSc3ncc(-c4ccccc4)n3-c3ccccc3)cc2)C1 [Compound 2, 1-(4-{2-[(1,5-diphenyl-1H-imidazol-2-yl)thio]ethyl}benzyl)azetidine-3-carboxylic acid]
